Data as given in US9156811B2 (priority 2008, dated 2015).

How the values were obtained:
[1] = molecular target: T. brucei N-myristoyl transferase (Trypanosoma brucei brucei (strain 927/4 GUTat10.1), UniProt Q388H8); assay: biochemical; format: biochemical; details: value printed without enzyme tag in the NMT Enzyme column (taken as T. brucei NMT); read-out: IC50 (μM) NMT Enzyme
[2] = tested on: Trypanosome (T. brucei brucei); assay: In-vitro antitrypanosomal efficacy assay (cell growth, resazurin); format: cell-based; details: T. brucei cell growth
Experimental: To column 12, 200 μl media was added to provide a no cells control. Plates were then incubated at 37° C. in an atmosphere of 5% CO2 for 69 hours, before the addition of 20 μl of 500 μM rezasurin solution, and a further incubation period of 4 hours. […] Concentration effect curves were fitted using non-linear regression using XLFit 4.2 and EC50 values determined.

Sequence of T. brucei N-myristoyl transferase (Q388H8 1-446): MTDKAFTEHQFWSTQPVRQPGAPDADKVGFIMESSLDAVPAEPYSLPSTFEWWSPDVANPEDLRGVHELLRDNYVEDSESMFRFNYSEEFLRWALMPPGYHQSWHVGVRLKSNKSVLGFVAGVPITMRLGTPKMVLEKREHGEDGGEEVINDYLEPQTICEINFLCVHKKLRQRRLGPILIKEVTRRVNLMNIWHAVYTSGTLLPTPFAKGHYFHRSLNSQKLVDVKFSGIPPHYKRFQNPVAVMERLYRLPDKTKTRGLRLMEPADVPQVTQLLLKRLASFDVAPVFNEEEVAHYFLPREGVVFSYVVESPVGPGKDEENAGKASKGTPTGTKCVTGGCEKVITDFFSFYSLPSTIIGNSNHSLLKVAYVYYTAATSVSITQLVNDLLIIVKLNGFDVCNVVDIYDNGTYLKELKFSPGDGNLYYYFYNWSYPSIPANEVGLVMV

SMILES | IC50 [1] [µM] | ED50 (μM) T. brucei [2] [µM]
Cc1nn(C)c(C)c1N[S+](=O)([O-])c1ccc([S+](=O)([O-])N2CCCC2)cc1 [DDD71607] | > 100 | >1
Cc1cc(C(=O)O)cc([S+](=O)([O-])Nc2c(C)nn(C)c2C)c1C [DDD71608] | > 100 | >1
COc1ccc([S+](=O)([O-])Nc2c(C)nn(C)c2C)cc1NC(C)=O [DDD71622] | 41 | >1
COc1cc([S+](=O)([O-])Nc2c(C)nn(C)c2C)ccc1NC(C)=O [DDD71623] | 42 | >1
COc1cc(C)c([S+](=O)([O-])Nc2cc[nH]n2)c(C)c1C [DDD71630] | > 100 | >1
Cc1nn(C)c(C)c1N[S+](=O)([O-])c1ccc2c(c1)C(C)C(=O)N2 (centres unmarked) [DDD71637] | 11.7 | >1
COc1cc(C)c([S+](=O)([O-])n2ccc(N)n2)c(C)c1C [DDD71644] | > 100 | >1
COc1cc(C)c([S+](=O)([O-])Nc2c(C)cc(C)cc2C)c(C)c1C [DDD71645] | > 100 | >1
CC(=O)Nc1cc(C)c([S+](=O)([O-])Nc2c(C)nn(C)c2C)s1 [DDD73219] | 69 | >1
Cc1nn(C)c(C)c1N[S+](=O)([O-])c1sc2ccc(F)cc2c1C [DDD73221] | 6.6 | >1
Cc1nn(C)c(C)c1N[S+](=O)([O-])c1ccc(NCCCO)nc1 [DDD73222] | 1 | >1
Cc1nn(C)c(C)c1N[S+](=O)([O-])c1ccc(CN2CCNC(=O)C2)cc1 [DDD73225] | > 100 | >1
Cc1nn(C)c(C)c1N[S+](=O)([O-])c1ccc(CN2CCCCC2)cc1 [DDD73226] | > 100 | >1
Cc1nn(C)c(C)c1N[S+](=O)([O-])c1ccc(N2CCc3ccccc3C2)nc1 [DDD73227] | 0.9 | 8.1
Cc1nn(C)c(C)c1N[S+](=O)([O-])c1ccc(N2CCN(c3ccc(F)cc3)CC2)nc1 [DDD73230] | 10.7 | >1
COc1ccc(SCc2ccc([S+](=O)([O-])Nc3c(C)nn(C)c3C)cc2)cc1 [DDD73231] | 0.76 | 6.7
Cc1nn(C)c(C)c1N[S+](=O)([O-])c1ccc(Cn2ccnc2)cc1 [DDD73232] | 1.9 | 18.6
Cc1nn(C)c(C)c1N[S+](=O)([O-])c1ccc(NCc2cccnc2)nc1 [DDD73233] | 2.7 | >1
Cc1nn(C)c(C)c1N[S+](=O)([O-])c1ccc(N2CCN(C)CC2)nc1 [DDD73236] | 11.9 | >1
Cc1nn(C)c(C)c1N[S+](=O)([O-])c1cc([S+](=O)([O-])c2ccccc2)cs1 [DDD73237] | 10.4 | >1
Cc1nn(C)c(C)c1N[S+](=O)([O-])c1ccc(CNC(=O)c2ccccc2)s1 [DDD73238] | 0.63 | 6.9
Cc1nn(C)c(C)c1N[S+](=O)([O-])c1ccc(NCCN2CCOCC2)nc1 [DDD73239] | 38.7 | >50
Cc1nn(C)c(C)c1N[S+](=O)([O-])c1cccc2c(N(C)C)cccc12 [DDD73240] | 1.6 | >1
Cc1nn(C)c(C)c1N[S+](=O)([O-])c1ccc([S+](C)(=O)[O-])cc1 [DDD73241] | 4.2 | >1
Cc1nn(C)c(C)c1N[S+](=O)([O-])c1ccc(-c2cc(C(F)(F)F)n(C)n2)s1 [DDD73242] | 32 | >1
Cc1nn(C)c(C)c1N[S+](=O)([O-])c1ccc(CN2C(=O)CSC2=O)cc1 [DDD73243] | 5.8 | >1
Cc1nn(C)c(C)c1N[S+](=O)([O-])c1ccc(CNCc2ccccc2)cc1 [DDD73265] | 22.5 | >1
CCCn1ncc(N[S+](=O)([O-])c2c(C)cc(OC)c(C)c2C)n1 [DDD73266] | > 100 | >1

SMILES | IC50 [1] [µM] | ED50 (μM) T. brucei [2] [µM]
CCc1ccc(-c2cc(Cl)c([S+](=O)([O-])Nc3c(C)nn(C)c3C)c(Cl)c2)cc1 [DDD73267] | 44.5 | >1
Cc1nn(C)c(C)c1N[S+](=O)([O-])c1c(Cl)cc(-c2ccco2)cc1Cl [DDD73268] | 3.6 | >1
CCCn1cc(N[S+](=O)([O-])c2c(C)cc(OC)c(C)c2C)nn1 [DDD73269] | > 100 | >1
COc1cc(C)c([S+](=O)([O-])Nc2c(C)nn(C)c2N2CCOCC2)c(C)c1C [DDD73271] | > 100 | >1
Cc1nn(C)c(C)c1N[S+](=O)([O-])c1c(Cl)cc(-c2cccc(OCC(C)C)c2)cc1Cl [DDD73272] | 35 | >1
Cc1nn(C)c(C)c1N[S+](=O)([O-])c1c(Cl)cc(-c2cccc(C(F)(F)F)c2)cc1Cl [DDD73277] | 40 | >1
Cc1nn(C)c(C)c1N[S+](=O)([O-])c1c(Cl)cc(-c2cccc3cnccc23)cc1Cl [DDD73278] | 26.9 | >1
Cc1nn(C)c(C)c1N[S+](=O)([O-])c1c(Cl)cc(-c2cccc(C(N)=O)c2)cc1Cl [DDD73279] | 1.1 | 2.1
Cc1nn(C)c(C)c1N[S+](=O)([O-])c1c(Cl)cc(-c2cc3ccccc3o2)cc1Cl [DDD73280] | 20.7 | >1
Cc1nn(C)c(C)c1N[S+](=O)([O-])c1ccc(NCc2cccc(N(C)C)c2)nc1 [DDD73320] | 2.6 | 16.3
COc1cc(OC)cc(-c2cc(Cl)c([S+](=O)([O-])Nc3c(C)nn(C)c3C)c(Cl)c2)c1 [DDD73321] | 4.3 | >1
Cc1nn(C)c(C)c1N[S+](=O)([O-])c1ccc(NC(C)c2ccccc2)nc1 (centres unmarked) [DDD73322] | 0.86 | 5.4
Cc1nn(C)c(C)c1N[S+](=O)([O-])c1ccc(NCc2ccc(Cl)c(Cl)c2)nc1 [DDD73325] | 12.8 | >1
Cc1nn(C)c(C)c1N[S+](=O)([O-])c1ccc(NCc2ccc3c(c2)OCO3)nc1 [DDD73326] | 1.4 | >1
Cc1nn(C)c(C)c1N[S+](=O)([O-])c1ccc(NCCCc2ccccc2)nc1 [DDD73327] | 2.8 | >1
COc1ccccc1CNc1ccc([S+](=O)([O-])Nc2c(C)nn(C)c2C)cn1 [DDD73328] | 2.4 | 19.1
COc1cccc(CNc2ccc([S+](=O)([O-])Nc3c(C)nn(C)c3C)cn2)c1 [DDD73329] | 1.6 | >1
Cc1nn(C)c(C)c1N[S+](=O)([O-])c1ccc(NCC(O)c2ccccc2)nc1 (centres unmarked) [DDD73330] | 2.3 | >1
Cc1nn(C)c(C)c1N[S+](=O)([O-])c1ccc(N2Cc3ccccc3CC2CO)nc1 (centres unmarked) [DDD73331] | 6 | >1
Cc1nn(C)c(C)c1N[S+](=O)([O-])c1ccc(NCc2ccc3[nH]ccc3c2)nc1 [DDD73332] | 0.34 | 3.2
Cc1nn(C)c(C)c1N[S+](=O)([O-])c1ccc(NC(CO)c2ccccc2)nc1 (centres unmarked) [DDD73333] | > 100 | >1
Cc1nn(C)c(C)c1N[S+](=O)([O-])c1ccc(NCc2ccc(N3CCOCC3)cc2)nc1 [DDD73475] | 0.88 | 10.5
Cc1nn(C)c(C)c1N[S+](=O)([O-])c1ccc(NCc2nc3ccccc3s2)nc1 [DDD73477] | 0.46 | 6.0
Cc1nn(C)c(C)c1N[S+](=O)([O-])c1ccc(NC2Cc3ccccc3C2)nc1 [DDD73478] | 0.36 | 4.5
Cc1nn(C)c(C)c1N[S+](=O)([O-])c1c(Cl)cc(C#CC2CCCCC2)cc1Cl [DDD73479] | > 100 | >1
Cc1nn(C)c(C)c1N[S+](=O)([O-])c1ccc(Nc2ccccc2)nc1 [DDD73480] | 4.5 | 22.1
Cc1nn(C)c(C)c1N[S+](=O)([O-])c1ccc(N2CCC(c3ccccc3)CC2)nc1 [DDD73481] | 6.9 | >1
